We go through one molecule from US11229203B2, “Method of formulation of combined microbe and agricultural chemistry, microbe-derivative composition, and use of same” (priority 2017, dated 2022).

The subject of one assay is seeds. Put plainly: Field trials and large-scale laboratory tests of seed treatments. The format is in vivo. To be noted: seeds treated with formulations containing only 0.7 μl/seed. The text has this:
Applicants expected that this compound as well as other microbial metabolites would have transitory but beneficial effects on plant growth, resistance to stresses and other advantages. However, as field trials were developed and conducted on seed treatments with this compound in field and large-scale laboratory tests, the effects were discovered to be neither transitory nor small.

A further assay deals with plant. As to the kind of experiment: Plant growth and productivity with 1-octen-3-ol in aerial solution or as seed treatment. As to conditions: very low concentrations in aerial solution; duplicated by seed treatments at low concentrations. The format is in vivo. An excerpt: Applicants have begun evaluating the triggering molecules released in the rhizosphere since applicants expected that they might have both commercial and basic scientific uses. The expectation was they would have beneficial effects upon plants.

Consider `C=CC(O)CCCCC` (centres unmarked) [Trichoderma 1-octen-3-ol, 1-octen-3-ol], for which the “Duration of effects after seed treatment” value with seeds is listed as “season long effects were observed”. The “Effect on plant growth and productivity” value in the assay with plant was “enhances plant growth and productivity”.
